Measured values published in patent US20250114486A1, “MARKED FATTY ACID DERIVATIVE, PRECURSOR COMPOUND THEREOF, AND USE THEREOF IN CONTRAST AGENT” (BEIJING NORMAL UNIVERSITY, priority 2022, published 2025).

Assays:
[1] = In vivo biodistribution in female Kunming mice; details: for Biodistribution: Large Intestine / Biodistribution: Small Intestine / Biodistribution: Stomach: unit % ID
Protocol: Female Kunming mice (20-22 g, n=3) were fasted for 12 h before the experiment, and the purified radioactive ^99mTc complex 130 was dissolved in a normal saline (containing 10% ethanol) solution (about 100 μCi/mL). Female Kunming mice were injected with 100 μL of the above solution through the tail vein, and the mice were killed by cervical dislocation at 5, 15, 30, 60, and 120 min post-injection, respectively. Blood, brain, heart, liver, spleen, lung, kidney, muscle, bone, large intestine, small intestine, stomach and tail were collected, weighed and counted, and the count distribution of each tissue and organ was calculated (unit: % ID/g, the unit of large intestine, small intestine and stomach was % ID), and the data were the mean±standard deviation of three mice in each time phase. At the same time, 100 μL of the above solution was diluted to 10 mL, which was used as the % ID without deducting the tail count.
The corresponding radioactive ^99mTc complex 158 as the typical compounds of the general formula V in this application was selected to conduct an in vivo biodistribution study in female Kunming mice. The specific experimental method was shown in the experimental method of “In vivo biodistribution study of radioactive ^99mTc complex 130 in female Kunming mice” in Example 7 above.

[2] = In vivo biodistribution of radioactive ^99mTc complexes in female SD rats; parameters: species or system female Sprague-Dawley (SD) rats
Protocol: Female SD rats (180-220 g, n=3) were fasted for 12 h before the experiment, and the purified radioactive 99mTc complexes 78-81 were prepared into physiological saline (containing 10% ethanol) solutions of about 250-350 μCi/mL. 200 μL of the above solution was injected into the tail vein of female SD rats, and the rats were killed by cervical dislocation at five time points, 15, 30, 60, 120 and 240 min after the tail vein injection. The blood, brain, heart, liver, spleen, lung, kidney, muscle, bone, large intestine, small intestine, stomach and tail were collected, weighed and counted, and the count distribution of each tissue and organ was calculated (unit: % ID/g, the unit of large intestine, small intestine and stomach is % ID), and the data are the mean±standard deviation of three mice in each phase. At the same time, 200 μL of the above solution was diluted to 20 mL, which was used as the % ID without deducting the tail count.

## COC(C)(C)C[N+]#[C][99Tc-5]([C]#[N+]CC(C)(C)OC)([C]#[N+]CC(C)(C)OC)([C]#[N+]CC(C)(C)OC)([C]#[N+]CC(C)(C)OC)[C]#[N+]CC(C)(C)OCCCS(=O)(=O)CCCCCSCCCCC(=O)O [^99mTc complex 130]
[1]; 5 min post-injection
  Biodistribution: Blood: 0.54 ± 0.07 ID %/g
  Biodistribution: Bone: 0.54 ± 0.10 ID %/g
  Biodistribution: Brain: 0.04 ± 0.00 ID %/g
  Biodistribution: Heart: 2.14 ± 0.25 ID %/g
  Biodistribution: Kidney: 9.64 ± 0.08 ID %/g
  Biodistribution: Liver: 53.13 ± 4.86 ID %/g
  Biodistribution: Lungs: 0.84 ± 0.09 ID %/g
  Biodistribution: Muscle: 0.75 ± 0.06 ID %/g
  Biodistribution: Spleen: 0.67 ± 0.04 ID %/g
  Heart-to-Blood ratio: 3.96
  Heart-to-Liver ratio: 0.04
  Heart-to-Lungs ratio: 2.55
  Heart-to-Muscle ratio: 2.85
  Biodistribution: Large Intestine: 0.53 ± 0.10 % ID
  Biodistribution: Small Intestine: 4.32 ± 0.25 % ID
  Biodistribution: Stomach: 0.17 ± 0.02 % ID
[1]; 15 min post-injection
  Biodistribution: Blood: 0.24 ± 0.01 ID %/g
  Biodistribution: Bone: 0.76 ± 0.13 ID %/g
  Biodistribution: Brain: 0.03 ± 0.01 ID %/g
  Biodistribution: Heart: 1.92 ± 0.18 ID %/g
  Biodistribution: Kidney: 7.89 ± 0.19 ID %/g
  Biodistribution: Liver: 42.04 ± 2.91 ID %/g
  Biodistribution: Lungs: 0.76 ± 0.03 ID %/g
  Biodistribution: Muscle: 0.67 ± 0.07 ID %/g
  Biodistribution: Spleen: 0.50 ± 0.03 ID %/g
  Heart-to-Blood ratio: 8.00
  Heart-to-Liver ratio: 0.05
  Heart-to-Lungs ratio: 2.53
  Heart-to-Muscle ratio: 2.87
  Biodistribution: Large Intestine: 0.82 ± 0.34 % ID
  Biodistribution: Small Intestine: 20.74 ± 0.83 % ID
  Biodistribution: Stomach: 0.26 ± 0.01 % ID
[1]; 30 min post-injection
  Biodistribution: Blood: 0.12 ± 0.04 ID %/g
  Biodistribution: Bone: 0.33 ± 0.12 ID %/g
  Biodistribution: Brain: 0.02 ± 0.01 ID %/g
  Biodistribution: Heart: 1.54 ± 0.38 ID %/g
  Biodistribution: Kidney: 2.51 ± 0.58 ID %/g
  Biodistribution: Liver: 18.08 ± 0.30 ID %/g
  Biodistribution: Lungs: 0.28 ± 0.05 ID %/g
  Biodistribution: Muscle: 0.59 ± 0.16 ID %/g
  Biodistribution: Spleen: 0.31 ± 0.05 ID %/g
  Heart-to-Blood ratio: 12.83
  Heart-to-Liver ratio: 0.09
  Heart-to-Lungs ratio: 5.50
  Heart-to-Muscle ratio: 2.61
  Biodistribution: Large Intestine: 1.56 ± 0.16 % ID
  Biodistribution: Small Intestine: 29.63 ± 3.26 % ID
  Biodistribution: Stomach: 0.12 ± 0.04 % ID
[1]; 60 min post-injection
  Biodistribution: Blood: 0.08 ± 0.01 ID %/g
  Biodistribution: Bone: 0.15 ± 0.03 ID %/g
  Biodistribution: Brain: 0.02 ± 0.00 ID %/g
  Biodistribution: Heart: 1.37 ± 0.26 ID %/g
  Biodistribution: Kidney: 1.20 ± 0.10 ID %/g
  Biodistribution: Liver: 15.12 ± 1.7 ID %/g
  Biodistribution: Lungs: 0.19 ± 0.01 ID %/g
  Biodistribution: Muscle: 0.43 ± 0.09 ID %/g
  Biodistribution: Spleen: 0.14 ± 0.03 ID %/g
  Heart-to-Blood ratio: 17.13
  Heart-to-Liver ratio: 0.09
  Heart-to-Lungs ratio: 7.21
  Heart-to-Muscle ratio: 3.19
  Biodistribution: Large Intestine: 16.13 ± 5.3 % ID
  Biodistribution: Small Intestine: 26.18 ± 3.9 % ID
  Biodistribution: Stomach: 0.29 ± 0.05 % ID
[1]; 120 min post-injection
  Biodistribution: Blood: 0.04 ± 0.01 ID %/g
  Biodistribution: Bone: 0.09 ± 0.01 ID %/g
  Biodistribution: Brain: 0.02 ± 0.01 ID %/g
  Biodistribution: Heart: 1.27 ± 0.03 ID %/g
  Biodistribution: Kidney: 0.30 ± 0.04 ID %/g
  Biodistribution: Liver: 3.74 ± 0.98 ID %/g
  Biodistribution: Lungs: 0.19 ± 0.05 ID %/g
  Biodistribution: Muscle: 0.38 ± 0.10 ID %/g
  Biodistribution: Spleen: 0.13 ± 0.02 ID %/g
  Heart-to-Blood ratio: 31.75
  Heart-to-Liver ratio: 0.34
  Heart-to-Lungs ratio: 6.68
  Heart-to-Muscle ratio: 3.34
  Biodistribution: Large Intestine: 34.11 ± 4.52 % ID
  Biodistribution: Small Intestine: 7.50 ± 2.45 % ID
  Biodistribution: Stomach: 0.17 ± 0.12 % ID
[1]; after tail vein injection
  absolute myocardial uptake (assessment): relatively low

## COC(C)(C)C[N+]#[C][99Tc-5]([C]#[N+]CC(C)(C)OC)([C]#[N+]CC(C)(C)OC)([C]#[N+]CC(C)(C)OC)([C]#[N+]CC(C)(C)OC)[C]#[N+]CC(C)(C)OCCSCCCCC(=O)O [^99mTc complex 78]
[2]
  absolute myocardial uptake values (comparison with complexes 79-81): lower than the above values
  heart-to-liver ratios (comparison with complexes 79-81): lower than the above values
